Results as given in PubChem BioAssay AID330 (DTP/NCI, 2004).
Inconclusive results and toxic doses are left out.

Tested on: P388 leukemia ip, CD2F1 mice, survival T/C
Test: NCI In Vivo Anticancer Drug Screen. Data for tumor model P388 Leukemia (intraperitoneal) in CD2F1 (CDF1) mice
Details: endpoint: median survival time, higher = longer survival
Method in brief: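 Mice carrying the transplanted tumor received test compound or vehicle. Survival was recorded in each group, and the value is the treated-group measurement divided by that of the vehicle-treated control group.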

[1] = dose: 50.0 mg/kg/injection, schedule: Q01DX005 (ip), vehicle: saline with Tween-80
[2] = dose: 100.0 mg/kg/injection, schedule: Q01DX005 (ip), vehicle: saline with Tween-80
[3] = dose: 200.0 mg/kg/injection, schedule: Q01DX005 (ip), vehicle: saline with Tween-80
[4] = dose: 25.0 mg/kg/injection, schedule: Q04DX003 (ip), vehicle: saline with Tween-80
[5] = dose: 50.0 mg/kg/injection, schedule: Q04DX003 (ip), vehicle: saline with Tween-80
[6] = dose: 60.0 mg/kg/injection, schedule: Q01DX005 (ip), vehicle: Klucel (hydroxypropylcellulose) (HPC)
[7] = dose: 120.0 mg/kg/injection, schedule: Q01DX005 (ip), vehicle: Klucel (hydroxypropylcellulose) (HPC)
[8] = dose: 240.0 mg/kg/injection, schedule: Q01DX005 (ip), vehicle: Klucel (hydroxypropylcellulose) (HPC)
[9] = dose: 100.0 mg/kg/injection, schedule: Q04DX003 (ip), vehicle: saline with Tween-80
[10] = dose: 50.0 mg/kg/injection, schedule: Q01DX009 (ip), vehicle: saline
[11] = dose: 100.0 mg/kg/injection, schedule: Q01DX009 (ip), vehicle: saline
[12] = dose: 200.0 mg/kg/injection, schedule: Q01DX009 (ip), vehicle: saline
[13] = dose: 50.0 mg/kg/injection, schedule: Q01DX009 (ip), vehicle: saline with Tween-80
[14] = dose: 100.0 mg/kg/injection, schedule: Q01DX009 (ip), vehicle: saline with Tween-80
[15] = dose: 200.0 mg/kg/injection, schedule: Q01DX009 (ip), vehicle: saline with Tween-80
[16] = dose: 60.0 mg/kg/injection, schedule: Q01DX005 (ip), vehicle: saline with Tween-80
[17] = dose: 100.0 mg/kg/injection, schedule: Q04DX002 (ip), vehicle: saline with Tween-80
[18] = dose: 400.0 mg/kg/injection, schedule: Q01DX009 (ip), vehicle: saline with Tween-80

C(=C/c1nc2ccccc2nc1CCN1CCCCC1)/c1ccc2c(c1)OCO2
T/C [1]: 100 % of control | T/C [2]: 102 % of control | T/C [3]: 102 % of control

Cn1cnc2ncnc(NCc3ccccc3Cl)c21
T/C (dose: 6.25 mg/kg/injection, schedule: Q04DX003 (ip), vehicle: saline with Tween-80): 93 % of control | T/C (dose: 12.5 mg/kg/injection, schedule: Q04DX003 (ip), vehicle: saline with Tween-80): 94 % of control | T/C [4]: 94 % of control | T/C [5]: 91 % of control

O=C(Nc1cccc2c1C(=O)c1c(NC(=O)c3ccccc3)ccc(Nc3cccc4c3C(=O)c3ccccc3C4=O)c1C2=O)c1ccccc1
T/C [1]: 100 % of control | T/C [2]: 103 % of control | T/C [3]: 103 % of control

CCC(c1ccc(OCC(=O)OCCNCCCl)cc1)C(CC)c1ccc(OCC(=O)OCCNCCCl)cc1 (stereo unspecified)
T/C (dose: 25.0 mg/kg/injection, schedule: Q04DX002 (ip), vehicle: saline): 101 % of control | T/C (dose: 50.0 mg/kg/injection, schedule: Q04DX002 (ip), vehicle: saline): 97 % of control | T/C (dose: 100.0 mg/kg/injection, schedule: Q04DX002 (ip), vehicle: saline): 101 % of control | T/C (dose: 100.0 mg/kg/injection, schedule: Q04DX002 (ip), vehicle: suspension in saline): 97 % of control | T/C (dose: 200.0 mg/kg/injection, schedule: Q04DX002 (ip), vehicle: suspension in saline): 87 % of control

CCN(CC)C(=O)CCc1ccc(Cl)cc1
T/C [6]: 104 % of control | T/C [7]: 95 % of control | T/C [8]: 102 % of control

O=C(Nc1c(Cl)cccc1Cl)OCCOc1ccc(Cl)cc1Cl
T/C [6]: 99 % of control | T/C [7]: 96 % of control | T/C [8]: 99 % of control

CC(C)(C)c1cc(C(=O)O)c2c(c1)C(=O)OCS2
T/C (dose: 100.0 mg/kg/injection, schedule: Q04DX003 (ip), vehicle: Klucel (hydroxypropylcellulose) (HPC)): 99 % of control | T/C (dose: 200.0 mg/kg/injection, schedule: Q04DX003 (ip), vehicle: Klucel (hydroxypropylcellulose) (HPC)): 91 % of control | T/C (dose: 400.0 mg/kg/injection, schedule: Q04DX003 (ip), vehicle: Klucel (hydroxypropylcellulose) (HPC)): 97 % of control

COC1/C=C/OC2(C)Oc3c(C)c(O)c4c(O)c(c(C5OCCO5)c(O)c4c3C2=O)NC(=O)/C(C)=C\C=C\C(C)C(O)C(C)C(O)C(C)C(OC(C)=O)C1C (stereo unspecified)
T/C [4]: 96 % of control | T/C [5]: 96 % of control | T/C [9]: 96 % of control | T/C (dose: 200.0 mg/kg/injection, schedule: Q04DX003 (ip), vehicle: saline with Tween-80): 104 % of control

CC(=O)OC1CC(n2cc(C)c(=O)[nH]c2=O)OC1COP(=O)(N1CC1)N1CC1 (stereo unspecified)
T/C [4]: 104 % of control | T/C [5]: 112 % of control | T/C [9]: 124 % of control

Cc1nc(N)n[nH]1
T/C [10]: 102 % of control | T/C [11]: 109 % of control | T/C [12]: 105 % of control | T/C (dose: 400.0 mg/kg/injection, schedule: Q01DX009 (ip), vehicle: saline): 96 % of control

O=C(Cc1ccc(OCc2ccccc2)cc1)OCc1ccco1
T/C [13]: 109 % of control | T/C [14]: 100 % of control | T/C [15]: 100 % of control

CCOC1=C(N2CC2)C(=O)C(OCC)=C(N2CC2)C1=O
T/C (dose: 1.25 mg/kg/injection, schedule: Q01DX009 (ip), vehicle: saline): 171 % of control | T/C (dose: 2.5 mg/kg/injection, schedule: Q01DX009 (ip), vehicle: saline): 242 % of control

CCCCCCCCCCCCCC[N+](C)(CC(=O)[O-])Cc1ccccc1 (stereo unspecified)
T/C (dose: 15.0 mg/kg/injection, schedule: Q01DX005 (ip), vehicle: saline with Tween-80): 108 % of control | T/C (dose: 30.0 mg/kg/injection, schedule: Q01DX005 (ip), vehicle: saline with Tween-80): 93 % of control | T/C [16]: 101 % of control

CSC(=S)/N=c1\ccccn1C
T/C (dose: 25.0 mg/kg/injection, schedule: Q04DX002 (ip), vehicle: saline with Tween-80): 102 % of control | T/C (dose: 50.0 mg/kg/injection, schedule: Q04DX002 (ip), vehicle: saline with Tween-80): 99 % of control | T/C [17]: 102 % of control

CC(=O)NCC1CC2(Cl)C(Cl)=C(Cl)C1(Cl)C2(Cl)Cl (stereo unspecified)
T/C (dose: 50.0 mg/kg/injection, schedule: Q01DX005 (ip), vehicle: Klucel (hydroxypropylcellulose) (HPC)): 101 % of control | T/C (dose: 100.0 mg/kg/injection, schedule: Q01DX005 (ip), vehicle: Klucel (hydroxypropylcellulose) (HPC)): 106 % of control | T/C (dose: 200.0 mg/kg/injection, schedule: Q01DX005 (ip), vehicle: Klucel (hydroxypropylcellulose) (HPC)): 106 % of control

CN(C)c1ccc(CN2CCCN(Cc3ccc(N(C)C)cc3)C2c2ccncc2)cc1
T/C [14]: 100 % of control | T/C [15]: 100 % of control | T/C [18]: 100 % of control

O=C1CSC(=S)N1CCCN1CCOCC1
T/C [13]: 104 % of control | T/C [14]: 106 % of control | T/C [15]: 101 % of control

C=C(C)C1CCC2(C)C1CCC1(C)C2CCC2C3(C)C4OC(OC4=O)C(C)(C)C3CCC21C (stereo unspecified)
T/C (dose: 25.0 mg/kg/injection, schedule: Q01DX005 (ip), vehicle: DMSO): 98 % of control | T/C (dose: 50.0 mg/kg/injection, schedule: Q01DX005 (ip), vehicle: DMSO): 100 % of control | T/C (dose: 100.0 mg/kg/injection, schedule: Q01DX005 (ip), vehicle: DMSO): 100 % of control | T/C (dose: 200.0 mg/kg/injection, schedule: Q01DX005 (ip), vehicle: DMSO): 113 % of control | T/C (dose: 400.0 mg/kg/injection, schedule: Q01DX005 (ip), vehicle: DMSO): 108 % of control

Cc1ccc(O)c(C2CC(C#N)CCN2C)c1 (stereo unspecified)
T/C [16]: 98 % of control | T/C (dose: 120.0 mg/kg/injection, schedule: Q01DX005 (ip), vehicle: saline with Tween-80): 100 % of control | T/C (dose: 240.0 mg/kg/injection, schedule: Q01DX005 (ip), vehicle: saline with Tween-80): 105 % of control

C/C(Br)=C(\C(=O)O)S(=O)(=O)O
T/C (dose: 5.0 mg/kg/injection, schedule: Q01DX009 (ip), vehicle: saline with Tween-80): 106 % of control | T/C (dose: 10.0 mg/kg/injection, schedule: Q01DX009 (ip), vehicle: saline with Tween-80): 97 % of control | T/C (dose: 20.0 mg/kg/injection, schedule: Q01DX009 (ip), vehicle: saline with Tween-80): 99 % of control

COC(=O)c1ccccc1-c1ccccc1C=O
T/C [17]: 97 % of control | T/C (dose: 200.0 mg/kg/injection, schedule: Q04DX002 (ip), vehicle: saline with Tween-80): 98 % of control | T/C (dose: 400.0 mg/kg/injection, schedule: Q04DX002 (ip), vehicle: saline with Tween-80): 100 % of control

CCCCCCCCCCCCCCCC[n+]1ccc(C(N)=O)cc1
T/C (dose: 3.0 mg/kg/injection, schedule: Q01DX009 (ip), vehicle: saline with Tween-80): 109 % of control | T/C (dose: 6.0 mg/kg/injection, schedule: Q01DX009 (ip), vehicle: saline with Tween-80): 118 % of control | T/C (dose: 12.0 mg/kg/injection, schedule: Q01DX009 (ip), vehicle: saline with Tween-80): 109 % of control

CC12CCC(=O)C=C1C=CC1C2CCC2(C)C1CCC21CCC(=O)O1 (stereo unspecified)
T/C [13]: 94 % of control | T/C [14]: 91 % of control | T/C [15]: 97 % of control

CC1(C)COC2(C)ON12 (stereo unspecified)
T/C [1]: 106 % of control | T/C [2]: 117 % of control | T/C [3]: 113 % of control

O=C(O)CCCCCCCCCCNC(=O)CI
T/C (dose: 6.25 mg/kg/injection, schedule: Q01DX009 (ip), vehicle: Klucel (hydroxypropylcellulose) (HPC)): 107 % of control | T/C (dose: 12.5 mg/kg/injection, schedule: Q01DX009 (ip), vehicle: Klucel (hydroxypropylcellulose) (HPC)): 119 % of control | T/C (dose: 25.0 mg/kg/injection, schedule: Q01DX009 (ip), vehicle: Klucel (hydroxypropylcellulose) (HPC)): 119 % of control

CC(C)=CC(=O)O
T/C [13]: 99 % of control | T/C [14]: 101 % of control | T/C [15]: 100 % of control | T/C [18]: 90 % of control

C=C[Se](=C(C(=O)c1ccccc1)C(=O)c1ccccc1)c1ccccc1 (stereo unspecified)
T/C (dose: 6.25 mg/kg/injection, schedule: Q01DX009 (ip), vehicle: saline): 96 % of control | T/C (dose: 12.5 mg/kg/injection, schedule: Q01DX009 (ip), vehicle: saline): 103 % of control | T/C (dose: 25.0 mg/kg/injection, schedule: Q01DX009 (ip), vehicle: saline): 99 % of control | T/C [10]: 107 % of control | T/C [11]: 113 % of control | T/C [12]: 113 % of control
